In US20230081720A1, “MCL-1 INHIBITOR ANTIBODY-DRUG CONJUGATES AND METHODS OF USE” (NOVARTIS AG, priority 2019, published 2023):

Legend:
Mcl-1 protein = Mcl-1 protein (Homo sapiens, UniProt Q07820); test: Inhibition of Mcl-1 by fluorescence polarization (FP); type: binding; conditions: fluorescein-labelled ligand 1 nM, Mcl-1 protein 5 nM
Description: The relative binding potency of each compound was determined via Fluorescence Polarization (FP).
An 11-point serial dilution of each compound was prepared in DMSO and 2 PI transferred into flat bottomed, low binding, 384-well plate (final DMSO concentration 5%). 38 μl of buffer (10 mM 4-(2-hydroxyethyl)-1-piperazineethanesulfonic acid [HEPES], 150 mM NaCl, 0.05% Tween 20, pH 7.4), containing the fluorescein-labelled ligand (final concentration 1 nM) and Mcl-1 protein (final concentration 5 nM) was then added.

[1] = tested on: NCI-H929 multiple myeloma cell line; test: In vitro cytotoxicity, Microculture Tetrazolium Assay (MTT); type: cell-based; conditions: NCI-H929 cells, 48 hours
Description: Cytotoxicity studies were carried out on the NCI-H929 multiple myeloma cell line. The cells were distributed onto microplates and exposed to the test compounds for 48 hours.

Sequence of Mcl-1 protein (Q07820 whole entry): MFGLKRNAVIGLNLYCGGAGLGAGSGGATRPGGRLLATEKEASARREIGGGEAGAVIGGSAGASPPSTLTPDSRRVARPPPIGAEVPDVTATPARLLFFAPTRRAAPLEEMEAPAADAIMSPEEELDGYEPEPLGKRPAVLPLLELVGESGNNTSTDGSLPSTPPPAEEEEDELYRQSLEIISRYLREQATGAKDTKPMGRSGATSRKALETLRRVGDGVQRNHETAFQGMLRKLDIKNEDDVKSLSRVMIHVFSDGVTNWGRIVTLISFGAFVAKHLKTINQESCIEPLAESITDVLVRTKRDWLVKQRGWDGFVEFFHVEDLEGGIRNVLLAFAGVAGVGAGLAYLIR

Work on “(2R)-2-{[(5Sa)-5-{3-chloro-2-methyl-4-[2-(4-methylpiperazin-1-yl)ethoxy]phenyl}-6-(4-fluorophenyl)thieno[2,3-d]pyrimidin-4-yl]oxy}-3-(2-{[2-(4-hydroxyphenyl)pyrimidin-4-yl]methoxy}phenyl)propanoic Acid [C5]” yielded an IC50 (Mcl-1 protein) of 4.05 nM and an IC50 [1] of 4.08 nM.

`COc1ccccc1-c1nccc(COc2ccccc2C[C@@H](Oc2ncnc3sc(-c4ccc(F)cc4)c(-c4ccc(OCCN5CCNCC5)c(Cl)c4C)c23)C(=O)O)n1` [C3, (2R)-2-[(5Sa)-5-[3-chloro-2-methyl-4-(2-piperazin-1-ylethoxy)phenyl]-6-(4-fluorophenyl)thieno[2,3-d]pyrimidin-4-yl]oxy-3-[2-[[2-(2-methoxyphenyl)pyrimidin-4-yl]methoxy]phenyl]propanoic acid] showed an IC50 (Mcl-1 protein) of 0.948 nM and an IC50 ([1]; Homo sapiens) of 42 nM.

With `Cc1c(-c2c(-c3ccc(F)cc3)sc3ncnc(O[C@H](Cc4ccccc4OCc4ccnc(-c5cccc(OS(=O)(=O)O)c5)n4)C(=O)O)c23)ccc(OCCN2CCN(C)CC2)c1Cl` [C8, (2R)-2-[(5Sa)-5-[3-chloro-2-methyl-4-[2-(4-methylpiperazin-1-yl)ethoxy]phenyl]-6-(4-fluorophenyl)thieno[2,3-d]pyrimidin-4-yl]oxy-3-[2-[[2-(3-sulfooxyphenyl)pyrimidin-4-yl]methoxy]phenyl]propanoic acid] the IC50 (Mcl-1 protein) was 3 nM and the IC50 ([1]; Homo sapiens) was 574 nM.

With `COc1ccccc1-c1nccc(COc2ccccc2C[C@@H](Oc2ncnc3sc(-c4ccc(F)c(OCC(F)(F)F)c4)c(-c4ccc(OCCN5CCN(C)CC5)c(Cl)c4C)c23)C(=O)O)n1` [C10, (2R)-2-[(5Sa)-5-[3-chloro-2-methyl-4-[2-(4-methylpiperazin-1-yl)ethoxy]phenyl]-6-[4-fluoro-3-(2,2,2-trifluoroethoxy)phenyl]thieno[2,3-d]pyrimidin-4-yl]oxy-3-[2-[[2-(2-methoxyphenyl)pyrimidin-4-yl]methoxy]phenyl]propanoic Acid] the IC50 (Mcl-1 protein) was 3.4 nM and the IC50 ([1]; Homo sapiens) was 13.5 nM.

`COc1ccccc1-c1nccc(COc2ccccc2C[C@@H](Oc2ncnc3sc(-c4cc(N)c(F)c(F)c4)c(-c4ccc(OCCN5CCN(C)CC5)c(Cl)c4C)c23)C(=O)O)n1` [C13, (2R)-2-{[(5Sa)-6-(3-amino-4,5-difluorophenyl)-5-{3-chloro-2-methyl-4-[2-(4-methylpiperazin-1-yl)ethoxy]phenyl}thieno[2,3-d]pyrimidin-4-yl]oxy}-3-(2-{[2-(2-methoxyphenyl)pyrimidin-4-yl]methoxy}phenyl)propanoic acid] gave an IC50 (Mcl-1 protein) of 2.2 nM and an IC50 ([1]; Homo sapiens) of 3.76 nM.

Molecule `COc1ccccc1-c1nccc(COc2ccccc2C[C@@H](Oc2ncnc3sc(-c4ccc(F)c(O)c4)c(-c4ccc(OCCN5CC[N+](C)(CCCS(=O)(=O)[O-])CC5)c(Cl)c4C)c23)C(=O)O)n1` [C2, (2R)-2-[(5Sa)-5-[3-chloro-2-methyl-4-[2-[4-methyl-4-(3-sulfopropyl)piperazin-4-ium-1-yl]ethoxy]phenyl]-6-(4-fluoro-3-hydroxy-phenyl)thieno[2,3-d]pyrimidin-4-yl]oxy-3-[2-[[2-(2-methoxyphenyl)pyrimidin-4-yl]methoxy]phenyl]propanoic acid] has an IC50 (Mcl-1 protein) of 2.6 nM and an IC50 ([1]; Homo sapiens) of 8510 nM.

With `Cc1c(-c2c(-c3ccc(F)cc3)sc3ncnc(O[C@H](Cc4ccccc4OCc4ccnc(-c5cccc(S(=O)(=O)O)c5)n4)C(=O)O)c23)ccc(OCCN2CCN(C)CC2)c1Cl` [C9, (2R)-2-{[(5Sa)-5-{3-chloro-2-methyl-4-[2-(4-methylpiperazin-1-yl)ethoxy]phenyl}-6-(4-fluorophenyl)thieno[2,3-d]pyrimidin-4-yl]oxy}-3-(2-{[2-(3-sulfophenyl)pyrimidin-4-yl]methoxy}phenyl)propanoic acid] the IC50 (Mcl-1 protein) was 2.5 nM and the IC50 ([1]; Homo sapiens) was 2270 nM.
